Measurements from ChEMBL document CHEMBL4825743, “Novel Substituted Heterocyclic and Heteroaryl Compounds for Treating Huntington's Disease” (ACS Med Chem Lett, 2021).

Molecular target: Huntingtin (Homo sapiens, UniProt P42858)
Assay: Inhibition of Huntingtin protein (unknown origin) incubated for overnight in presence of MW1/MAB2166 monoclonal antibody by ELISA-based MSD electrochemiluminescence assay

Sequence of Huntingtin (P42858 whole entry): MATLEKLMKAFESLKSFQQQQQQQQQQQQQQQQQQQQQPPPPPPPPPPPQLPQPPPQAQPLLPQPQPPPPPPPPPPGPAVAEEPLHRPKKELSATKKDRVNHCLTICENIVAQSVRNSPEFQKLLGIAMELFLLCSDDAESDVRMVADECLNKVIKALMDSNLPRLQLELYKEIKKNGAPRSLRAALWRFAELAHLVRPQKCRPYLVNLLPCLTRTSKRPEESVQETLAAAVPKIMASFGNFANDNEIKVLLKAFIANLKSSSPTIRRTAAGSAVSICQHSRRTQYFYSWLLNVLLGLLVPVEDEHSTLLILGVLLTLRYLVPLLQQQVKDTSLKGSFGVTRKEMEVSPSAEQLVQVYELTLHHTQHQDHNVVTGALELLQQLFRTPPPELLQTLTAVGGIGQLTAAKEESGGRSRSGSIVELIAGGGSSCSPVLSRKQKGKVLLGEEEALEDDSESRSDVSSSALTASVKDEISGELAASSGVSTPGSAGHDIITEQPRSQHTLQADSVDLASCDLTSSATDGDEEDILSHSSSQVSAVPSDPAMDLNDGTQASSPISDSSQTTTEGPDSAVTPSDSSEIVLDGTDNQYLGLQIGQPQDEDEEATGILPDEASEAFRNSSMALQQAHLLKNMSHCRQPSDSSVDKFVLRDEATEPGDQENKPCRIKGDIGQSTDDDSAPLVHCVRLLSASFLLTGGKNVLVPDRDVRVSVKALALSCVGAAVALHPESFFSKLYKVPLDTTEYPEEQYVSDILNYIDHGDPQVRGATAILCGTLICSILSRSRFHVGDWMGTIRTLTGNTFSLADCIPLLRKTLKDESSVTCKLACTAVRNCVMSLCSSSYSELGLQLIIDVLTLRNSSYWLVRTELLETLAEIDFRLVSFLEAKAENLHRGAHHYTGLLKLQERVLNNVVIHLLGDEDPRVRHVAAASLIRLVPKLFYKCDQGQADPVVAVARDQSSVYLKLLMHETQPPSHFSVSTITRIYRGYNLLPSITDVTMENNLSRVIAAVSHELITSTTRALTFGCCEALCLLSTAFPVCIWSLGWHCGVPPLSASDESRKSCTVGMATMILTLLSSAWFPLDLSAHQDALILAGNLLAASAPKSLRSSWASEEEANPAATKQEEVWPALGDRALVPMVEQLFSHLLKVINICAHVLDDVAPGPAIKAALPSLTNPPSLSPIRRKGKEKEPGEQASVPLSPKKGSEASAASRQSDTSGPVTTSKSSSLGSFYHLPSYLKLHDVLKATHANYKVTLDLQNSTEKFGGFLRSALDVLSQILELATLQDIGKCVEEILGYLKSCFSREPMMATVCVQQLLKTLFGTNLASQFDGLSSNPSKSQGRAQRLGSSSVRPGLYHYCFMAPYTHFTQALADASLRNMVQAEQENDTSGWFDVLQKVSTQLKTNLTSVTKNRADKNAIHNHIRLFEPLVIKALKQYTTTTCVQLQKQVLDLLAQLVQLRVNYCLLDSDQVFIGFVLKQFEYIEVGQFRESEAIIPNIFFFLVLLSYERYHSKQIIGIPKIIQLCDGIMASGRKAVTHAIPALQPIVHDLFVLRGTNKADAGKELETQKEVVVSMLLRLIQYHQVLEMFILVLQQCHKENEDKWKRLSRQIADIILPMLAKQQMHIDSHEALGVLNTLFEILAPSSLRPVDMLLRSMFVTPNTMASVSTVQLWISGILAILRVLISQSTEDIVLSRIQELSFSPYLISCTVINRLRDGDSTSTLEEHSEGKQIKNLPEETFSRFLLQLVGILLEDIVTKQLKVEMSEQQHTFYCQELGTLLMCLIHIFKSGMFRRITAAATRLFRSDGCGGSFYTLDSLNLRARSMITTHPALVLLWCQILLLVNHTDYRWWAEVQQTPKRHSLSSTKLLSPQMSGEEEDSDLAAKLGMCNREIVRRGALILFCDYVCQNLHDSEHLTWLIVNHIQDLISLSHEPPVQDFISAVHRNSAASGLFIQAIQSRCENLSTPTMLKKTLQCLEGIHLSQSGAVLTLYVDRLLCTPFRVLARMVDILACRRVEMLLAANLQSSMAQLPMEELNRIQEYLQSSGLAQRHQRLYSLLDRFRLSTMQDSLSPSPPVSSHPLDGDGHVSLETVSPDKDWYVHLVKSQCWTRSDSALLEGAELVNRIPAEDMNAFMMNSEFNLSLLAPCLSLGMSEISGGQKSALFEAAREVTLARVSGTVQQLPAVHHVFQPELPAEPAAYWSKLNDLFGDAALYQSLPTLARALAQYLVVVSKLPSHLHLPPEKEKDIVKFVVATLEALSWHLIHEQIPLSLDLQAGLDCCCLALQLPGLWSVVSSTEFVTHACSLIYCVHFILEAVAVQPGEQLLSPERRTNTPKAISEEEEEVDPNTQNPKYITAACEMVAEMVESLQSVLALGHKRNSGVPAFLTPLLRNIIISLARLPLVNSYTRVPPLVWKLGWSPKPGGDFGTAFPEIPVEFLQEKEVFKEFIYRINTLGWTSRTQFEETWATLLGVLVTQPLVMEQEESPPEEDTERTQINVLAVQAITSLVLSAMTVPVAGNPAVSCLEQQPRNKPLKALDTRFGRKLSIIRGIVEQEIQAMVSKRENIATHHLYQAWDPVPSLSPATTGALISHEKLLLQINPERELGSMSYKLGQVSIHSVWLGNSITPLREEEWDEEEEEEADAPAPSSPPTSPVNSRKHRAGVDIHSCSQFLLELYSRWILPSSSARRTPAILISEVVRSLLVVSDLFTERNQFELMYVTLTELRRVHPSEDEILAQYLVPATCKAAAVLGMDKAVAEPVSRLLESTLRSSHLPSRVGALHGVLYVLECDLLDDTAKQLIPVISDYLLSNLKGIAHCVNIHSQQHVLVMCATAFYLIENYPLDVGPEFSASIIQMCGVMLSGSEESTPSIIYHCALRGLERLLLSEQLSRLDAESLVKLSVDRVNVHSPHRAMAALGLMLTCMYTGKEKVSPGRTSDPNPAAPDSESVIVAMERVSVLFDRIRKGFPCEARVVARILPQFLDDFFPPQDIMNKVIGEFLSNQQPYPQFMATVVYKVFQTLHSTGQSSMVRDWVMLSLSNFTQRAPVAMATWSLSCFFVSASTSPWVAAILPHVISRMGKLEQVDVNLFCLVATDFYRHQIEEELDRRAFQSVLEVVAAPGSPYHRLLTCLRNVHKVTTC

Compound | IC50 [nM]
CC1(C)C=C(c2csc3cc(-c4ccc(-c5cn[nH]c5)cc4O)nnc23)CC(C)(C)N1 | ≤ 100
CC1(C)CC(n2nnc3cc(-c4ccc(-c5nncs5)cc4O)nnc32)CC(C)(C)N1 | ≤ 100
CC1(C)CC(n2nnc3cc(-c4ccc(-c5nccs5)cc4O)nnc32)CC(C)(C)N1 | ≤ 100
CC1(C)CC(n2nnc3cc(-c4ccc(-n5nccn5)cc4O)nnc32)CC(C)(C)N1 [VOTOPLAM] | ≤ 100

Now from value to compound:

IC50 [nM] | Compound
≤ 100 | CC1(C)CC(n2nnc3cc(-c4ccc(-c5ncco5)cc4O)nnc32)CC(C)(C)N1
≤ 100 | COc1ncnc(-c2ccc(-c3cc4nnn(C5CC(C)(C)NC(C)(C)C5)c4nn3)c(O)c2)n1
